Measurements from patent publication US9487470B2, “4-((substituted phenyl) difluoromethyl) phenoxy carboxylic acid derivative, and preparation method and uses thereof” (Zhejiang Hisun Pharmaceutical Co., Ltd., priority 2012, dated 2016).
Values belong to the molecule of their own block, whether it stands above or below them.

Key:
[1] = tested on: hyperlipoidemia model of Goldenhamsters (blood plasma TC, HDL-C, LDL-C); assay: Pharmacological test group 2: effects on blood lipid levels of Goldenhamsters in hyperlipoidemia model; format: in vivo; conditions: for effect on HDL-C, in comparison with the results before administration (in words) / effect on LDL-C, in comparison with the results before administration (in words) / effect on TC, in comparison with the results before administration (in words): t test after vs before administration; for HDL-C, before administration / LDL-C, before administration / TC, before administration: baseline of the group before administration, high-lipid feed 2 weeks, 6 animals
Text: (§1) Animals: 120 male Goldenhamsters, aged 8 weeks, body weight 80-100 g, provided by Vital River Laboratories, Beijing.
Kits: The kits for total cholesterol (TC) and high density lipoprotein cholesterol (HDL-C) were provided by SYSMEX, and the kits for low density lipoprotein cholesterol (LDL-C) were provided by Shanghai Kehua Bio-engineering Co., Ltd.
(§2) Apparatus: SYSMEX Automatic Biochemistry Analyzer, Bechman centrifuge, Setoris balance.
(§3) The animals were acclimatized and fed for 1 week, ad lib, light cycle was 10 h/14 h, and then feeds with high lipid content were fed to the animals (formulation: 0.3% cholesterol, 20% palm oil, and 79.7% basic feeds). The animals were fed for 2 weeks, and were fasted at 4:00 pm on the 14th day (fasted for 16 h). On the 15th day, the animals were anaesthetized with ethyl ether, weighted, and then 0.5 ml blood was collected from vena orbitalis posterior. The blood was anticoagulated with heparin, and was centrifugated at 5000 rpm for 10 min. The blood plasma was taken, and the levels of TC, HDL-C, and LDL-C in blood plasma were determined using automatic biochemistry analyzer.
(§4) During the administration, feeds with high lipid content were continuously fed to the animals. The animals were fed for 1 week, and were fasted at 4:00 pm on the 7th day. On the 8th day, the animals were anaesthetized with ethyl ether, weighted, and then 0.5 ml blood was collected from vena orbitalis posterior. The blood was anticoagulated with heparin, and was centrifugated at 5000 rpm for 10 min. The blood plasma was taken, and the levels of TC, HDL-C, and LDL-C in blood plasma were determined using automatic biochemistry analyzer.
(§5) The results were represented by x±s, and t test was employed for comparing the results obtained before and after administration.

[2] = tested on: hyperlipoidemia model of Goldenhamsters (blood plasma TC, TG, HDL-C, LDL-C); assay: Pharmacological test group 1: effects on blood lipid levels of Goldenhamsters in a hyperlipoidemia model; format: in vivo; conditions: for HDL-C, after administration / LDL-C, after administration / TG, after administration / TC, after administration: 40 mg/kg intragastric, 1 week, high-lipid feed continued, asterisks = P vs before administration
Text: Animals: 134 male Goldenhamsters, aged 8 weeks, body weight 80-100 g, provided by Vital River Laboratories, Beijing. […] Kits: The kits for total cholesterol (TC), triglyceride (TG), and high density lipoprotein cholesterol (HDL-C) were provided by SYSMEX, and the kits for low density lipoprotein cholesterol (LDL-C) were provided by Shanghai Kehua Bio-engineering Co., Ltd. Apparatus: SYSMEX Automatic Biochemistry Analyzer, Bechman centrifuge, Setoris balance. The animals were acclimatized and fed for 1 week, ad lib, light cycle was 10 h/14 h, and then feeds with high lipid content were fed to the animals (formulation: 0.3% cholesterol, 20% palm oil, and 79.7% basic feeds). The animals were fed for 10 days, and were fasted at 4:00 pm on the 10th day (fasted for 16 h). On the 11th day, the animals were anaesthetized with ethyl ether, weighted, and then 0.5 ml blood was collected from vena orbitalis posterior. The blood was anticoagulated with heparin, and was centrifugated at 5000 rpm for 10 min. The blood plasma was taken, and the levels of TC, TG, HDL-C, and LDL-C in blood plasma were determined using automatic biochemistry analyzer. The animals were acclimatized and fed for 1 week, ad lib, light cycle was 10 h/14 h, and then feeds with high lipid content were fed to the animals (formulation: 0.3% cholesterol, 20% palm oil, and 79.7% basic feeds). The animals were fed for 2 weeks, and were fasted at 4:00 pm on the […] (fasted for 16 h). On the 22nd day, the animals were anaesthetized with ethyl ether, weighted, and then 0.5 ml blood was collected from vena orbitalis posterior. The blood was anticoagulated with heparin, and was centrifugated at 5000 rpm for 10 min. The blood plasma was taken, and the levels of TC, TG, HDL-C, and LDL-C in blood plasma were determined using automatic biochemistry analyzer. […] During the administration, feeds with high lipid content were continuously fed to the animals. The animals were fed for 1 week, and were fasted at 4:00 pm on the 7th day. On the 8th day, the animals were anaesthetized with ethyl ether, weighted, and then 0.5 ml blood was collected from vena orbitalis posterior. The blood was anticoagulated with heparin, and was centrifugated at 5000 rpm for 10 min. The blood plasma was taken, and the levels of TC, TG, HDL-C, and LDL-C in blood plasma were determined using automatic biochemistry analyzer. The results were represented by x±s, and t test was employed for comparing the results obtained before and after administration.

[3] = background statement; cited from earlier work
[4] = Solubility in water (remark on the test drugs); format: physicochemical; conditions: formulated with 20% solutol
[5] = tested on: hyperlipoidemia model of Goldenhamsters (blood plasma TC, TG, HDL-C, LDL-C); assay: Pharmacodynamic test group 3: effects on blood lipid levels of Goldenhamsters in a hyperlipoidemia model; format: in vivo; conditions: for HDL-C, after administration / LDL-C, after administration / TC, after administration / TG, after administration: 40 mg/kg intragastric, 1 week, high-lipid feed continued, asterisks = P vs before administration; for HDL-C, after administration / LDL-C, after administration / TC, after administration / TG, after administration / HDL-C, before administration / LDL-C, before administration / TC, before administration / TG, before administration: blood plasma, x±s; for effect on HDL-C, in comparison with the results before administration (in words) / effect on LDL-C, in comparison with the results before administration (in words) / effect on TC, in comparison with the results before administration (in words) / effect on TG, in comparison with the results before administration (in words): t test after vs before administration; for HDL-C, before administration / LDL-C, before administration / TC, before administration / TG, before administration: baseline of the group before administration, high-lipid feed 2 weeks, 6 animals
Text: as §1
Kits: The kits for total cholesterol (TC), triglyceride (TG), and high density lipoprotein cholesterol (HDL-C) were provided by SYSMEX, and the kits for low density lipoprotein cholesterol (LDL-C) were provided by Shanghai Kehua Bio-engineering Co., Ltd.
as §2
as §3, with “pm of” for “pm on”, “h). At” for “h). On”, “TC, TG,” for “TC,”
as §4, with “pm of” for “pm on”, “day. At” for “day. On”, “TC, TG,” for “TC,”
as §5

[6] = 40 mg/kg intragastric, 1 week, high-lipid feed continued, blood plasma, x±s, asterisks = P vs before administration
[7] = 40 mg/kg, t test after vs before administration
[8] = baseline of the group before administration, high-lipid feed, blood plasma, x±s, 6 animals

Molecule: fenofibrate [reference compound]
LDL-C, after administration [1, 6]: 2.45 ± 0.8 | effect on HDL-C, in comparison with the results before administration (in words) ([1]; 40 mg/kg): increases | effect on LDL-C, in comparison with the results before administration (in words) ([1]; 40 mg/kg): significantly decrease | effect on TC, in comparison with the results before administration (in words) ([1]; 40 mg/kg): significantly decrease | HDL-C, before administration ([1]; blood plasma, x±s): 1.46 ± 0.29 | LDL-C, before administration ([1]; blood plasma, x±s): 4.24 ± 1.51 | TC, before administration ([1]; blood plasma, x±s): 13.74 ± 2.71 | HDL-C, after administration ([2]; blood plasma, x±s): 4.11 ± 0.15 | LDL-C, after administration ([2]; blood plasma, x±s): 1.15 ± 0.3 | TG, after administration ([2]; blood plasma, x±s): 1.13 ± 0.47 | effect on HDL-C, in comparison with the results before administration (in words) [2, 7]: increases | effect on TG, in comparison with the results before administration (in words) [2, 7]: significantly decreases | HDL-C, before administration [2, 8]: 3.16 ± 0.24 | LDL-C, before administration [2, 8]: 1.35 ± 0.25 | TG, before administration [2, 8]: 2.39 ± 1 | adverse effects to gastrointestinal tract [3]: significant adverse effects to gastrointestinal tract

solubility in water [4]: insoluble
Molecule: CC(C)OC(=O)C(C)(C)Oc1ccc(C(F)(F)c2ccccc2)cc1 [HS003-008, Isopropyl 2-(4-(phenyldifluoromethyl)phenoxy)-2-methylpropionate]
regulating effects on the levels of blood lipid (conclusion from table 2) ([2]; 40 mg/kg): tend to the effects of significantly decreasing TG, TC, and LDL-C | HDL-C, after administration ([2]; blood plasma, x±s): 3.46 ± 0.26 | LDL-C, after administration ([2]; blood plasma, x±s): 1.0 ± 0.45 | TC, after administration ([2]; blood plasma, x±s): 9.85 ± 1.48 | TG, after administration ([2]; blood plasma, x±s): 1.22 ± 0.84 | effect on LDL-C, in comparison with the results before administration (in words) [2, 7]: significantly decreases | effect on TG, in comparison with the results before administration (in words) [2, 7]: significantly decreases | blood lipid-regulating effects (conclusion from table 4) ([5]; 40 mg/kg): excellent blood lipid-regulating effects | HDL-C, after administration [5]: 3.4 ± 0.11 | LDL-C, after administration [5]: 2.11 ± 0.89 | TC, after administration [5]: 10.84 ± 1.83 | TG, after administration [5]: 2.49 ± 0.99 | effect on HDL-C, in comparison with the results before administration (in words) ([5]; 40 mg/kg): increase | effect on LDL-C, in comparison with the results before administration (in words) ([5]; 40 mg/kg): significantly decrease | effect on TC, in comparison with the results before administration (in words) ([5]; 40 mg/kg): significantly decrease | effect on TG, in comparison with the results before administration (in words) ([5]; 40 mg/kg): significantly decrease | HDL-C, before administration [5]: 2.86 ± 0.14 | LDL-C, before administration [5]: 3.18 ± 0.81 | TC, before administration [5]: 12.85 ± 2 | TG, before administration [5]: 3.93 ± 1.09

solubility in water [4]: insoluble
Molecule: CC(C)OC(=O)C(C)(C)Oc1ccc(C(F)(F)c2ccc(Cl)cc2)cc1 [HS003-004, isopropyl 2-(4-((4-chlorophenyl)difluoromethyl)phenoxy)-2-methylpropionate]
blood lipid-regulating effects (conclusion from table 3) ([1]; 40 mg/kg): excellent blood lipid-regulating effects | HDL-C, after administration [1, 6]: 1.83 ± 0.18 | LDL-C, after administration [1, 6]: 1.97 ± 0.66 | TC, after administration [1, 6]: 9.86 ± 0.83 | therapeutic effect compared with fenofibrate (conclusion from table 3) ([1]; 40 mg/kg, fenofibrate 40 mg/kg): outstanding therapeutic effects, and are superior to fenofibrate | effect on HDL-C, in comparison with the results before administration (in words) ([1]; 40 mg/kg): increases | effect on LDL-C, in comparison with the results before administration (in words) ([1]; 40 mg/kg): significantly decreases | effect on TC, in comparison with the results before administration (in words) ([1]; 40 mg/kg): significantly decreases | HDL-C, before administration ([1]; blood plasma, x±s): 1.61 ± 0.21 | LDL-C, before administration ([1]; blood plasma, x±s): 3.26 ± 1.58 | TC, before administration ([1]; blood plasma, x±s): 13.82 ± 2.69 | regulating effects on the levels of blood lipid (conclusion from table 2) ([2]; 40 mg/kg): tend to the effects of significantly decreasing TG, TC, and LDL-C | HDL-C, after administration ([2]; blood plasma, x±s): 3.7 ± 0.31 | LDL-C, after administration ([2]; blood plasma, x±s): 1.27 ± 0.26 | TC, after administration ([2]; blood plasma, x±s): 9.16 ± 1.22 | TG, after administration ([2]; blood plasma, x±s): 1.30 ± 0.23 | effect on HDL-C, in comparison with the results before administration (in words) [2, 7]: increases | effect on TC, in comparison with the results before administration (in words) [2, 7]: significantly decreases | effect on TG, in comparison with the results before administration (in words) [2, 7]: significantly decreases | blood lipid-regulating effects (conclusion from table 4) ([5]; 40 mg/kg): excellent blood lipid-regulating effects | HDL-C, after administration [5]: 3.16 ± 0.24 | LDL-C, after administration [5]: 1.86 ± 0.78 | TC, after administration [5]: 9.49 ± 1.82 | TG, after administration [5]: 2.22 ± 1.61 | therapeutic effect compared with fenofibrate (conclusion from table 4) ([5]; 40 mg/kg, fenofibrate 40 mg/kg): outstanding therapeutic effects, and are superior to fenofibrate | effect on HDL-C, in comparison with the results before administration (in words) ([5]; 40 mg/kg): increases | effect on LDL-C, in comparison with the results before administration (in words) ([5]; 40 mg/kg): significantly decreases | effect on TC, in comparison with the results before administration (in words) ([5]; 40 mg/kg): significantly decreases | effect on TG, in comparison with the results before administration (in words) ([5]; 40 mg/kg): significantly decreases | HDL-C, before administration [5]: 2.54 ± 0.22 | LDL-C, before administration [5]: 3.54 ± 0.71 | TC, before administration [5]: 12.68 ± 1.8 | TG, before administration [5]: 3.94 ± 1.07
